The values that follow are results of earlier work, collected in patent publication US20160008277A1, “CO-PACKAGED DRUG PRODUCTS” (Lightlake Therapeutics Inc., priority 2014, published 2016).

One data set relates to rat. To be noted: intravenous; cited from earlier work.
The subject of the next data set is mouse. To be noted: intravenous; cited from earlier work.
Another data set deals with newborn rats. To be noted: acute subcutaneous; cited from earlier work.

In the case of `C=CCN1CC[C@]23c4c5ccc(O)c4O[C@H]2C(=O)CC[C@@]3(O)[C@H]1C5.Cl` [naloxone hydrochloride, 17-allyl-4,5a-epoxy-3,14-dihydroxymorphinan-6-one hydrochloride], the figures for the LD50 in the data set with rat and with mouse were 109 ± 4 mg/kg and 150 ± 5 mg/kg, respectively. Further, in the data set with newborn rats, the “LD50 (95% CL)” value is 260 (228-296) mg/kg.

Broadly, the LD50 is the dose at which mortality reaches 50%.
